US20020147136A1, “Compounds for targeting endothelial cells, compositions containing the same and methods for their use” (priority 2000, published 2002)
Residues, ends and D or L forms follow the SMILES beside them.

How the values were obtained:
[1] = test system: Human aortic endothelial cells (HAEC); assay: Free TKPPR peptide inhibition of TKPPR-conjugated bead binding to HAEC; type: cell-based
Experimental: HAEC were seeded into each well of an 8-well chamber slide (Collagen I Cellware, Becton Dickinson) and allowed to achieve confluence at 37° C. Solutions containing both TKPPR-beads (final concentration 4.9×10^6/mL) and green control beads (final concentration 4.9×10^6/mL) were prepared in D-PBS containing protease inhibitor cocktail (final dilution 1:50) and 0, 10, 25, 50, 100, 200, or 500 μM free TKPPR peptide. 0.25 mL of each microsphere solution was added to a well in the drained chamber slide and incubated at RT for 15 min. Two wells received the bead solution (mixed unconjugated and TKPPR beads as indicated above) lacking free competing TKPPR peptide. The slide was then washed three times with 0.5 mL D-PBS containing 0.1% Tween 20, fixed with methanol for 1 min and mounted. The three images for each level of TKPPR competition and the six images of the control were averaged and the % inhibition of binding was calculated using the following equation:
% Inhibition=100×(Control Density−Competition Density)/Control Density
A total of eleven 8-well slides were evaluated for competitive TKPPR-bead binding to HAEC on 7 different days.

[2] = test system: Human aortic endothelial cells (HAEC); assay: TKPPR-conjugated fluorescent bead binding to HAEC, static; type: cell-based
Experimental: Human aortic endothelial cells (HAEC) from Biowhittaker were grown as monolayers in EGM-MV medium from Biowhittaker according to the supplier's instructions.
Briefly, a frozen cryovial of cells (500,000 cells in about 1 mL) was thawed for 2-3 minutes in a 37° C. water bath and cells were seeded into a T-75 flask coated with collagen I (commercially available) containing 15 mL EGM-MV of medium pre-equilibrated with 5% CO2 atmosphere. Cells were incubated in a standard tissue culture incubator at 37° C. HAEC were subcultured for up to 3 additional passages, using the following protocol:
For binding studies and characterization, pelleted cells were diluted to a concentration of 16,560 cells per mL, and 0.5 mL was seeded into each well of an 8-well chamber slide (Collagen I-coated, Becton Dickinson) to generate a seeding density of 12,000 cells/cm^2. Cells seeded into chamber slides were used for assays after 7 to 10 days, and were not further propagated.
TKPPR (see preparation described in the Example 1) was attached to red fluorescent carboxylate-modified FluoSpheres™ (Molecular Probes), which are 2.0 μm microspheres provided at 3.9×10^9 particles/mL of distilled water. 1.0 mg TKPPR was combined with 0.5 mLof 50 mM MES buffer (2-[N-Morpholino]ethanesulfonic acid, (commercially available), pH 6.0 and 0.2 mL FluoSpheres (7.8×10^8 spheres) in a 1.5 mL Eppendorf snap top, polypropylene centrifuge tube and rotated for 30 min at room temperature (RT). Then 2.8 mg EDAC (1-ethyl-3-(3-dimethylaminopropyl)carbodiimide hydrochloride, (commercially available) in 0.025 mL MES was added and the tube was rotated for 2 h at RT. Following the addition of 0.005 mL 1 N NaOH and 5.7 mg glycine in 0.025 mL MES, the tube was rotated for 30 min more at RT. The beads were then washed by employing three cycles of centrifugation at 14,000 rpm (20,800× g) in an Eppendorf 5417R centrifuge for 15 min, discarding the resulting supernatant, and resuspending in D-PBS. Storage was at 4° C. in 0.4 mL DPBS containing 0.05% NaN3 (final bead concentration was about 1.95×10^9/mL).
Final bead concentration was 1.95×10^7/mL. […]
Bead binding and localization was assessed at 200× magnification using the same microscopy equipment as described above. […] Finally, the processed images were inverted into black on a white background using Scion Image software (version beta 3b) and the integrated density was measured with the whole field selected.
The incubation time was decreased to 15 min on an orbital shaker, and the washes (3) were carried out using D-PBS containing 0.1% Tween 20 (Sigma). […] TKPPR-bead binding was quantitated in three fields, the other bead types were quantitated in one field only. Bound beads were quantitated by manual counting.

[3] = test system: Human Umbilical Vein Endothelial Cells (HUVECS)
Experimental: The ability of compositions comprising a TKPPR monomer and a TKPPR multimer to inhibit ^125I-VEGF binding to endothelial cells was evaluated using HUVECs.

Neuropilin-1/Fc = assay: Fluorescence polarization binding to NP-1/Fc; details: unlabeled competitor; read-out: IC50 for competing BRU-326 binding to NP-1

- IC50 (Neuropilin-1/Fc): 80 µM
SMILES: CC(O)C(N)C(=O)NC(CCCCN)C(=O)N1CCCC1C(=O)N1CCCC1C(=O)NC(CCCNC(=N)N)C(=O)O [TKPPR, L-Arginine, L-threonyl-L-lysyl-L-prolyl-L-prolyl] (H-TKPPR-OH; configuration not given here)
- Average (n = 11) % Inhibition of TKPPR-bead binding ([1]; free TKPPR 10 μM): 30.8%
- Average (n = 11) % Inhibition of TKPPR-bead binding ([1]; free TKPPR 25 μM): 50.7%
- Average (n = 11) % Inhibition of TKPPR-bead binding ([1]; free TKPPR 50 μM): 50.5%
- Average (n = 11) % Inhibition of TKPPR-bead binding ([1]; free TKPPR 100 μM): 62.0%
- Average (n = 11) % Inhibition of TKPPR-bead binding ([1]; free TKPPR 200 μM): 72.2%
- Average (n = 11) % Inhibition of TKPPR-bead binding ([1]; free TKPPR 500 μM): 70.6%
- Integrated density of bound beads ([2]; Experiment 1, 1.95×10^7 beads/mL, 30 min, HAEC monolayer): 229.97 arbitrary units
- Number of bound beads ([2]; Experiment 2, 4.9×10^6 beads/mL, 15 min, manual counting, TKPPR average of three fields, others one field): 74, 103, 72 (ave. 83)
- IC50 [3]: 250 µM
